# Measurements as given in patent US12403090B2, “Oral film compositions and dosage forms having precise active dissolution profiles” (Aquestive Therapeutics, Inc., priority 2018, dated 2025).
# Test: Solubility of clobazam in COSF liquid mix and oral films
# Type: physicochemical
# Conditions: API or films in 1.5 ml water; wet mass as such
# Description: An experiment was conducted to assess the solubility of clobazam in the liquid mix (pre-drying) and oral films (COSF). Oral thin films containing 10 mg and 20 mg clobazam were prepared and then dissolved in 1.5 ml water. Two other samples were evaluated—one being the active in water (without the excipients added to the composition for oral films); and second being the liquid mix for the film but tested prior to film forming (i.e., drying).
smiles,measurement,value
"CN1C(=O)CC(=O)N(c2ccccc2)c2cc(Cl)ccc21 [COSF API 10 mg, clobazam]",% Clobazam Dissolved in sample,1.576%
same,Actual Clobazam (mg/ml) in supernatant,0.11 mg/mL
